Patent US4347252A, “Rodenticidal 1-(3,5-bistrifluoromethylphenyl)-3-(4-t-butylpiperidino)prop-1-yne” (priority 1980, dated 1982)

Experiments:
Type in all cases: in vivo
mice (Mus musculus) [1] = experiment: Field Test on Mice
Procedure: Field Test on Mice (Mus musculus)
(1) A non-toxic bait was laid at 3 mouse-infested sites and the amount of bait eaten was determined by weighing. (2) The non-toxic bait was then withdrawn and replaced by a similar bait in which was incorporated 0.1% by weight of the test compound used in Test 2 hereinbefore described (poisoned bait). The amount of poisoned bait which was eaten was similarly determined by weighing over a period of three weeks. (3) The poisoned bait was then withdrawn and replaced by the non-toxic bait and the amount of non-toxic bait which was eaten was also similarly determined by weighing. The results obtained are given in following Table 6, the degree of control being calculated by a comparison of the amounts of non-toxic bait which were eaten during the periods before and after use of the poisoned bait.

[2] = system: Warfarin-resistant mice (Mus musculus); experiment: Laboratory Feeding Tests on Wild Rodents: mice; conditions: 0.1% by weight in bait
Excerpt: (§1) Laboratory Feeding Tests on Wild Rodents
(§2) Warfarin-resistant rats (Rattus norvegicus) and mice (Mus musculus) from wild populations were fed, in the laboratory, on a bait consisting of coarse oatmeal (90%), wholemeal flour (5%) and corn oil (5%). After feeding for four days on this bait, it was replaced by a treated bait of the same composition, in which 0.1% by weight of the test compound 1-(3,5-bistrifluoromethylphenyl)-3-(4-tert-butylpiperidino)prop-1-yne hydrochloride had been incorporated.

mice (Mus musculus) [3] = experiment: Laboratory Feeding Tests on Mice in Pens, Test 3(b), choice of poisoned and plain bait
Procedure: (§3) Laboratory Feeding Tests on Mice in Pens
(§4) A bait comprising oatmeal, wholemeal flour and corn oil (plain bait) and a bait of similar composition but incorporating 0.1% by weight of the test compound used in Test 2 hereinbefore described (poisoned bait) were prepared and used in the following tests on mice (Mus musculus) housed in pens.
A choice of poisoned and plain bait was offered to groups of mice.

mice (laboratory strain) = experiment: Acute Oral Toxicity in Mice (Laboratory Strain)
Procedure: Acute Oral Toxicity in Mice (Laboratory Strain)
Groups of mice were dosed orally with graded doses of the test compound in aqueous suspension and observed until there had been no deaths for at least three days. The acute oral LD50, that is to say the dose in mg/kg animal body weight necessary to kill 50% of the mice, was determined from the numbers of animals for each dose which died during the observation period by reference to published tables.

[4] = system: Wild Rats (Rattus norvegicus); experiment: Laboratory Simulated Field Test on Wild Rats in confinement; conditions: for Total bait eaten: poisoned + plain
Excerpt: Laboratory Simulated Field Test on Wild Rats (Rattus norvegicus) in confinement
One male and nine female rats were given the choice of two feeding points, at each of which the animals were offered a bait consisting of medium oatmeal (95%) and wholemeal flour (5%) (plain bait). After a period of six days during which the plain bait was offered at both feeding points, the plain bait was replaced at one of the feeding points by a bait of the same composition in which 0.1% by weight of the test compound used in Test 2 hereinbefore described had been incorporated (poisoned bait), while the plain bait continued to be offered at the other feeding point.

mice (Mus musculus) [5] = experiment: Laboratory Feeding Tests on Mice in Pens, Test 3(a), poisoned bait alone; conditions: 0.1% by weight in bait
Procedure: as §3, §4
The poisoned bait alone was offered to 4 male and 4 female mice.

[6] = system: Warfarin-resistant rats (Rattus norvegicus); experiment: Field Tests on Rats on three farms
Procedure: Field Tests on Rats (Rattus norvegicus)
Field tests were carried out on warfarin-resistant rats on three farms. Baits were prepared from either medium oatmeal or soaked wheat in which was incorporated 0.1% by weight of the test compound used in Test 2 hereinbefore described. […] The amount of bait eaten per day was determined by weighing and the presence or absence of rats was deduced from the amount of bait eaten and by counting the traces of the presence of rats in patches of dust laid for this purpose.

[7] = system: Warfarin-resistant rats (Rattus norvegicus); experiment: Laboratory Feeding Tests on Wild Rodents: rats; conditions: 0.1% by weight in bait
Excerpt: as §1, §2

CC(C)(C)C1CCN(CC#Cc2cc(C(F)(F)F)cc(C(F)(F)F)c2)CC1.Cl [1-(3,5-bistrifluoromethylphenyl)-3-(4-tert-butylpiperidino)prop-1-yne hydrochloride]
Estimated Control (mice (Mus musculus) [1]; Site 1): 98.8% | Amount of non-toxic bait eaten per week in period following use of poisoned bait (mice (Mus musculus) [1]; Site 1 (912 g per week before)): 11 g | Amount of poisoned bait eaten (mice (Mus musculus) [1]; Site 1, Week 1, 0.1% by weight in bait): 368 g | Amount of poisoned bait eaten (mice (Mus musculus) [1]; Site 1, Week 2): 1 g | Estimated Control (mice (Mus musculus) [1]; Site 2): 98.9% | Amount of non-toxic bait eaten per week in period following use of poisoned bait (mice (Mus musculus) [1]; Site 2 (897 g per week before)): 10 g | Amount of poisoned bait eaten (mice (Mus musculus) [1]; Site 2, Week 1, 0.1% by weight in bait): 441 g | Amount of poisoned bait eaten (mice (Mus musculus) [1]; Site 2, Week 2): 0 g | Estimated Control (mice (Mus musculus) [1]; Site 3): 100% | Amount of non-toxic bait eaten per week in period following use of poisoned bait (mice (Mus musculus) [1]; Site 3 (1880 g per week before)): 0 g | Amount of poisoned bait eaten (mice (Mus musculus) [1]; Site 3, Week 1, 0.1% by weight in bait): 929 g | Amount of poisoned bait eaten (mice (Mus musculus) [1]; Site 3, Week 2): 115 g | Amount of poisoned bait eaten (mice (Mus musculus) [1]; Site 3, Week 3): 11 g | Days to Death, Mean ([2]; female mice): 5.8 days | Mortality ([2]; female mice): 5/5 | Days to Death, Mean ([2]; male mice): 6.2 days | Mortality ([2]; male mice): 5/5 | Mortality (mice (Mus musculus) [3]; 15 mice in pen): 93.7% | Quantity of poisoned bait eaten (mice (Mus musculus) [3]; 15 mice in pen, Days 1 to 7): 43.0 g | Quantity of poisoned bait eaten (mice (Mus musculus) [3]; 15 mice in pen, Days 8 to 14): 1.2 g | Quantity of poisoned bait eaten (mice (Mus musculus) [3]; 15 mice in pen, Days 15 to 21): 0.3 g | Mortality (mice (Mus musculus) [3]; 16 mice in pen (first line)): 93.8% | Quantity of poisoned bait eaten (mice (Mus musculus) [3]; 16 mice in pen (first line), Days 1 to 7): 55.0 g | Quantity of poisoned bait eaten (mice (Mus musculus) [3]; 16 mice in pen (first line), Days 8 to 14): 0.5 g | Quantity of poisoned bait eaten (mice (Mus musculus) [3]; 16 mice in pen (first line), Days 15 to 21): 0.0 g | Mortality (mice (Mus musculus) [3]; 16 mice in pen (fourth line)): 93.8% | Quantity of poisoned bait eaten (mice (Mus musculus) [3]; 16 mice in pen (fourth line), Days 1 to 7): 25.7 g | Quantity of poisoned bait eaten (mice (Mus musculus) [3]; 16 mice in pen (fourth line), Days 8 to 14): 2.0 g | Quantity of poisoned bait eaten (mice (Mus musculus) [3]; 16 mice in pen (fourth line), Days 15 to 21): 0.3 g | Mortality (mice (Mus musculus) [3]; 24 mice in pen): 91.7% | Quantity of poisoned bait eaten (mice (Mus musculus) [3]; 24 mice in pen, Days 1 to 7): 42.3 g | Quantity of poisoned bait eaten (mice (Mus musculus) [3]; 24 mice in pen, Days 8 to 14): 3.5 g | Quantity of poisoned bait eaten (mice (Mus musculus) [3]; 24 mice in pen, Days 15 to 21): 0.7 g | LD50 (acute oral) (mice (laboratory strain); aqueous suspension): 23 mg/kg animal body weight | Observations: signs of poisoning (mice (laboratory strain); prior to death / after dosing): no marked signs | Quantity of bait eaten, Feeding Point A, Poisoned bait ([4]; Day 1, 0.1% by weight in bait): 99.7 g | Quantity of bait eaten, Feeding Point B, Plain bait ([4]; Day 1 of offering poisoned bait at Point A): 80.1 g | Quantity of bait eaten, Feeding Point A, Poisoned bait ([4]; Day 2): 95.2 g | Quantity of bait eaten, Feeding Point B, Plain bait ([4]; Day 2 of offering poisoned bait at Point A): 65.9 g | Quantity of bait eaten, Feeding Point A, Poisoned bait ([4]; Day 3): 19.8 g | Quantity of bait eaten, Feeding Point B, Plain bait ([4]; Day 3 of offering poisoned bait at Point A): 67.4 g | Cumulative mortality ([4]; Day 4): 30% | Quantity of bait eaten, Feeding Point A, Poisoned bait ([4]; Day 4): 5.1 g | Quantity of bait eaten, Feeding Point B, Plain bait ([4]; Day 4 of offering poisoned bait at Point A): 38.1 g | Quantity of bait eaten, Feeding Point A, Poisoned bait ([4]; Day 5): 1.8 g | Quantity of bait eaten, Feeding Point B, Plain bait ([4]; Day 5 of offering poisoned bait at Point A): 27.7 g | Cumulative mortality ([4]; Day 6): 60% | Quantity of bait eaten, Feeding Point B, Plain bait ([4]; Day 6 of offering poisoned bait at Point A): 19.3 g | Cumulative mortality ([4]; Day 7): 70% | Quantity of bait eaten, Feeding Point B, Plain bait ([4]; Day 7 of offering poisoned bait at Point A): 4.0 g | Cumulative mortality ([4]; Day 8): 80% | Quantity of bait eaten, Feeding Point B, Plain bait ([4]; Day 8 of offering poisoned bait at Point A): 6.5 g | Cumulative mortality ([4]; Day 9): 90% | Quantity of bait eaten, Feeding Point A, Poisoned bait ([4]; Day 9): 1.3 g | Quantity of bait eaten, Feeding Point B, Plain bait ([4]; Day 9 of offering poisoned bait at Point A): 3.7 g | Quantity of bait eaten, Feeding Point A, Poisoned bait ([4]; Day 11): 0.7 g | Quantity of bait eaten, Feeding Point B, Plain bait ([4]; Day 11 of offering poisoned bait at Point A): 0.7 g | Cumulative mortality ([4]; Day 12): 100% | Total bait eaten ([4]; Day 1): 179.8 g | Total bait eaten ([4]; Day 2): 161.1 g | Total bait eaten ([4]; Day 3): 97.2 g | Total bait eaten ([4]; Day 4): 43.2 g | Total bait eaten ([4]; Day 5): 29.5 g | Total bait eaten ([4]; Day 6): 19.3 g | Total bait eaten ([4]; Day 7): 4.0 g | Total bait eaten ([4]; Day 8): 6.5 g | Total bait eaten ([4]; Day 9): 5.0 g | Total bait eaten ([4]; Day 11): 1.4 g | Days to Death, Mean (mice (Mus musculus) [5]): 5.5 days | Mortality (mice (Mus musculus) [5]): 100% | Quantity of poisoned bait eaten (mice (Mus musculus) [5]; Day 1, 4 male and 4 female mice): 19.1 g | Quantity of poisoned bait eaten (mice (Mus musculus) [5]; Day 2): 18.8 g | Quantity of poisoned bait eaten (mice (Mus musculus) [5]; Day 3): 15.4 g | Quantity of poisoned bait eaten (mice (Mus musculus) [5]; Days 4-7): 13.7 g | Total number of dead rats observed during test ([6]; Farm 1): 44 | Amount of bait eaten ([6]; Farm 1, Day 1, 0.1% by weight in bait): 2060 g | Amount of bait eaten ([6]; Farm 1, Day 2): 440 g | Amount of bait eaten ([6]; Farm 1, Day 3): 130 g | Amount of bait eaten ([6]; Farm 1, Day 4): 60 g | Amount of bait eaten ([6]; Farm 1, Day 6): 245 g | Amount of bait eaten ([6]; Farm 1, Day 7): 130 g | Amount of bait eaten ([6]; Farm 1, Day 8): 85 g | Amount of bait eaten ([6]; Farm 1, Day 9): 30 g | Amount of bait eaten ([6]; Farm 1, Day 10): 10 g | Amount of bait eaten ([6]; Farm 1, Day 11): 40 g | Amount of bait eaten ([6]; Farm 1, Day 14): 65 g | Total number of dead rats observed during test ([6]; Farm 2): 8 | Amount of bait eaten ([6]; Farm 2, Day 1, 0.1% by weight in bait): 1455 g | Amount of bait eaten ([6]; Farm 2, Day 2): 1100 g | Amount of bait eaten ([6]; Farm 2, Day 3): 730 g | Amount of bait eaten ([6]; Farm 2, Day 4): 210 g | Amount of bait eaten ([6]; Farm 2, Day 7): 405 g | Amount of bait eaten ([6]; Farm 2, Day 8): 135 g | Amount of bait eaten ([6]; Farm 2, Day 9): 40 g | Amount of bait eaten ([6]; Farm 2, Day 10): 30 g | Amount of bait eaten ([6]; Farm 2, Day 11): 10 g | Amount of bait eaten ([6]; Farm 2, Day 14): 95 g | Amount of bait eaten ([6]; Farm 2, Day 15): 45 g | Amount of bait eaten ([6]; Farm 2, Day 16): 0 g | Total number of dead rats observed during test ([6]; Farm 3): 113 | Amount of bait eaten ([6]; Farm 3, Day 1, 0.1% by weight in bait): 4800 g | Amount of bait eaten ([6]; Farm 3, Day 2): 2680 g | Amount of bait eaten ([6]; Farm 3, Day 3): 360 g | Amount of bait eaten ([6]; Farm 3, Day 4): 445 g | Amount of bait eaten ([6]; Farm 3, Day 7): 565 g | Amount of bait eaten ([6]; Farm 3, Day 8): 205 g | Amount of bait eaten ([6]; Farm 3, Day 9): 185 g | Amount of bait eaten ([6]; Farm 3, Day 10): 65 g | Amount of bait eaten ([6]; Farm 3, Day 11): 15 g | rats initially present on the farms killed (estimated) ([6]; by the fourth day of the tests): about 80% | percentage kill compared with anticoagulant rodenticides ([6]; by the fourth day, vs usual kill with anticoagulant rodenticides used similarly): significantly higher percentage kill | Days to Death, Mean ([7]; female rats): 5.8 days | Mortality ([7]; female rats): 5/5 | Days to Death, Mean ([7]; male rats): 7.2 days | Mortality ([7]; male rats): 5/5
